Patent US5441987A, “Antifungal agent” (Merck & Co., Inc., priority 1994, dated 1995)
Converted amounts (≈) assume the structure as drawn.

Experiments:
[1] = system: A. fumigatus (5669); assay: broth microdilution MIC assay; details: Aspergillus fumigatus, read-out: Minimum Inhibitory Concentration (MIC)
Protocol: (§1) In the microbroth dilution assay, microorganisms were selected by streaking a yeast culture on Sabouraud dextrose agar (SDA) incubating for 24-48 hours at 35°-37° C., thereafter selected 3 to 5 characteristic colonies and transferring to a fresh plate and incubating under similar conditions. From the regrowth, 3 to 5 colonies were selected and suspended in 10 milliliters of YM broth (Difco) and incubated for 4 hours at 35°-37° C. shaking at 225 rpm. The 4 hour broth cultures were adjusted optically to 86% transmission resulting in a concentration of 1-5 X 10^6 cfu/ml which was further diluted 1:100 in YNBD (yeast nitrogen base with 1% dextrose) to obtain a concentration of 1-5 X 10^4 cfu/ml for use as inocula.
(§2) The compounds in column 1 were then serially diluted two-fold to yield concentrations from 128 μg/ml to 0.6 μg/ml.
(§3) The plates containing the diluted compounds were then inoculated with 75 μl/well of the appropriate microorganism and incubated for 48 hours at 35°-37° C. with MIC (minimum inhibitory concentration) determinations carried out after 24 hours of incubation. Growth and sterility controls for each organism and sterility checks for the compounds also were carried out.

[2] = system: C. neoformans (MY 1146); assay: broth microdilution MIC/MFC assay; details: Cryptococcus neoformans; for MFC: 48 h, read-out: Minimum Fungicidal Concentration (MFC); for MIC: read-out: Minimum Inhibitory Concentration (MIC)
Protocol: as §1, §2, §3
(§4) After recording MICs at 24 hours, the microtiter plates were shaken gently to resuspend the cells. A 1.5 μl sample was transferred from each well of the 96-well microtiter plate to a single reservoir inoculum plate containing SDA. The inoculated SDA and corresponding microtiter plates were incubated for 24 hours at 35°-37° C. For Cryptococus neoformans, SDA plates were inoculated at 48 hours after recording MICs and incubated 48 hours before reading the MFC. MFC is the lowest concentration of compound at which either no growth or growth of ≤4 colonies occur.

[3] = system: filamentous fungi; assay: filter paper disc inhibition zone assay, filamentous fungi; format: cell-based; details: 25 μl/disc, 28° C. or 37° C., 24 hours
Protocol: Compound I is also useful for inhibiting the growth of filamentous fungi. Such use may be illustrated in the following tests with Aspergillus fumigatus, Aspergillus niger, Aspergillus flavus, Fusarium oxysporum, Rhizomicor miehei, Ustilago zeae and the like. Inocula for filamentous fungi are prepared by scraping the surface of stock plates maintained on potato dextrose agar with a moistened sterile dacron swab. The spores and mycelia are then suspended in 10 milliliters of sterile potato dextrose broth and adjusted to 70 percent transmission at 660 nm. The samples to be tested for production of antifungal agent are applied to 6.2 mm. filter paper discs (25 microliter/disc) and air dried at 24° C. When the sample to be tested is crude broth, it may be centrifuged prior to application. The discs bearing the material to be tested are then applied employing sterile conditions to the seeded assay plates and the samples […] 25 percent sterile aqueous dimethylsulfoxide (25 μl/disc). The assay plates are then incubated at either 28° C. or 37° C. for 24 hours. Following incubation, the inhibition zones are measured. Growths are also noted as to appearance.

[4] = system: C. neoformans (MY 2062); assay: broth microdilution MIC/MFC assay; details: Cryptococcus neoformans; for MFC: 48 h, read-out: Minimum Fungicidal Concentration (MFC); for MIC: read-out: Minimum Inhibitory Concentration (MIC)
Protocol: as §1, §2, §3, §4

[5] = system: Botrytis cinerea; assay: in vivo protectant assay, grey mold on pepper; details: 50 ppm, evaluated after four days
[6] = system: C. tropicalis (MY 1012); assay: broth microdilution MIC/MFC assay; details: Candida tropicalis; for MIC: 24 h, read-out: Minimum Inhibitory Concentration (MIC); for MFC: read-out: Minimum Fungicidal Concentration (MFC)
Protocol: as §1, §2, §3, §4

[7] = system: Plasmopara viticola; assay: in vivo protectant assay, downy mildew on grape; details: 50 ppm, evaluated after 12 days
[8] = system: C. pseudotropicalis (MY 2099); assay: broth microdilution MIC/MFC assay; details: Kluyveromyces marxianus; for MIC: 24 h, read-out: Minimum Inhibitory Concentration (MIC); for MFC: read-out: Minimum Fungicidal Concentration (MFC)
Protocol: as §1, §2, §3, §4

[9] = system: C. neoformans (MY 2061); assay: broth microdilution MIC/MFC assay; details: Cryptococcus neoformans; for MFC: 48 h, read-out: Minimum Fungicidal Concentration (MFC); for MIC: read-out: Minimum Inhibitory Concentration (MIC)
Protocol: as §1, §2, §3, §4

[10] = system: A. fumigatus (5668); assay: broth microdilution MIC assay; details: Aspergillus fumigatus, read-out: Minimum Inhibitory Concentration (MIC)
Protocol: as §1, §2, §3

[11] = system: Candids albicans (MY 1028); assay: broth microdilution MIC/MFC assay; details: Candida albicans; for MFC: read-out: Minimum Fungicidal Concentration (MFC)
Protocol: as §1, §2, §3, §4

[12] = system: C. guillermondii (MY 1019); assay: broth microdilution MIC/MFC assay; details: Meyerozyma guilliermondii; for MIC: 24 h, read-out: Minimum Inhibitory Concentration (MIC); for MFC: read-out: Minimum Fungicidal Concentration (MFC)
Protocol: as §1, §2, §3, §4

[13] = system: C. parapsilosis (MY 1010); assay: broth microdilution MIC/MFC assay; details: Lodderomyces parapsilosis; for MIC: 24 h, read-out: Minimum Inhibitory Concentration (MIC); for MFC: read-out: Minimum Fungicidal Concentration (MFC)
Protocol: as §1, §2, §3, §4

[14] = system: Cryptococcus neoformans (MY 1051); assay: broth microdilution MIC/MFC assay; details: for MFC: 48 h, read-out: Minimum Fungicidal Concentration (MFC); for MIC: read-out: Minimum Inhibitory Concentration (MIC)
Protocol: as §1, §2, §3, §4

[15] = system: Phytophthora infestans; format: in vivo; details: 50 ppm, tomato, evaluated after four days
[16] = system: Saccharomyces cerevisiae (MY 1976); assay: broth microdilution MIC/MFC assay; details: for MIC: 24 h, read-out: Minimum Inhibitory Concentration (MIC)
Protocol: as §1, §2, §3, §4

[17] = system: Aspergillus fumigatus (MF 4839); assay: broth microdilution MIC assay; details: read-out: Minimum Inhibitory Concentration (MIC)
Protocol: as §1, §2, §3

[18] = system: Alternaria solani; assay: in vivo protectant assay, early blight on tomato; details: 50 ppm, evaluated after four days
[19] = system: C. albicans (MY 1750); assay: broth microdilution MIC/MFC assay; details: Candida albicans; for MFC: read-out: Minimum Fungicidal Concentration (MFC)
Protocol: as §1, §2, §3, §4

[20] = system: Puccinia recondita; assay: in vivo protectant assay, wheat leaf rust on wheat; details: 50 ppm, evaluated after 10-14 days
[21] = 24 h, read-out: Minimum Inhibitory Concentration (MIC)

| SMILES | MIC [1] | MFC [2] | MIC [2] | MFC [4] | MIC [4] | MIC [6] | MFC [6] | MIC [8] | MFC [8] | MFC [9] | MIC [9] | MIC [10] | MFC [11] | MIC [12] | MFC [12] | MIC [13] | MFC [13] | MFC [14] | MIC [14] | MIC [16] | other results |
| --- | --- | --- | --- | --- | --- | --- | --- | --- | --- | --- | --- | --- | --- | --- | --- | --- | --- | --- | --- | --- | --- |
| CCCCCCC(C)C1=C(O)C(=O)C2C(O)C(C)CC(O)C2C1(C)C(=O)CCO (centres unmarked) [Compound I] | 32 µg/mL (≈ 77.9 µM) | 32 µg/mL (≈ 77.9 µM) | 32 µg/mL (≈ 77.9 µM) | 32 µg/mL (≈ 77.9 µM) | 16 µg/mL (≈ 39 µM) | 32 µg/mL (≈ 77.9 µM) | 32 µg/mL (≈ 77.9 µM) | 16 µg/mL (≈ 39 µM) | 32 µg/mL (≈ 77.9 µM) | 16 µg/mL (≈ 39 µM) | 16 µg/mL (≈ 39 µM) | 32 µg/mL (≈ 77.9 µM) | 32 µg/mL (≈ 77.9 µM) | 16 µg/mL (≈ 39 µM) | 16 µg/mL (≈ 39 µM) | 64 µg/mL (≈ 156 µM) | 64 µg/mL (≈ 156 µM) | 16 µg/mL (≈ 39 µM) | 8 µg/mL (≈ 19.5 µM) | 16 µg/mL (≈ 39 µM) | growth inhibition of fungal organisms (inhibition zones) [3]: effectively inhibit growth; control of Botrytis cinerea [5]: Moderate control; control of Plasmopara viticola [7]: ≤ 85%; MIC [11, 21]: 32 µg/mL (≈ 77.9 µM); control of Phytophthora infestans [15]: up to 90%; MFC ([16]; read-out: Minimum Fungicidal Concentration (MFC)): 16 µg/mL (≈ 39 µM); MIC [17]: 32 µg/mL (≈ 77.9 µM); control of Alternaria solania [18]: Moderate control; MIC [19, 21]: 64 µg/mL (≈ 156 µM); MFC [19]: 32 µg/mL (≈ 77.9 µM); control of Puccinia recondita [20]: Moderate control |
| C[C@@H]1[C@H](O)[C@@H](C)/C=C/C=C/C=C/C=C/C=C/C=C/C=C/[C@H](O[C@@H]2O[C@H](C)[C@@H](O)[C@H](N)[C@@H]2O)C[C@@H]2O[C@](O)(C[C@@H](O)C[C@@H](O)[C@H](O)CC[C@@H](O)C[C@@H](O)CC(=O)O[C@H]1C)C[C@H](O)[C@H]2C(=O)O [Amphotericin B, reference compound] | 4 µg/mL (≈ 4.33 µM) | 2 µg/mL (≈ 2.16 µM) | 2 µg/mL (≈ 2.16 µM) | 2 µg/mL (≈ 2.16 µM) | 2 µg/mL (≈ 2.16 µM) | 64 µg/mL (≈ 69.3 µM) | 32 µg/mL (≈ 34.6 µM) | 4 µg/mL (≈ 4.33 µM) | 4 µg/mL (≈ 4.33 µM) | 2 µg/mL (≈ 2.16 µM) | 2 µg/mL (≈ 2.16 µM) | 4 µg/mL (≈ 4.33 µM) | 2 µg/mL (≈ 2.16 µM) | 2 µg/mL (≈ 2.16 µM) | 4 µg/mL (≈ 4.33 µM) | 2 µg/mL (≈ 2.16 µM) | 2 µg/mL (≈ 2.16 µM) | 4 µg/mL (≈ 4.33 µM) | 2 µg/mL (≈ 2.16 µM) | 1 µg/mL (≈ 1.08 µM) | MIC [17]: 4 µg/mL (≈ 4.33 µM); MFC [19]: 2 µg/mL (≈ 2.16 µM) |
